From patent US12146004B2, “Polymyxin compounds and uses thereof” (priority 2014, dated 2024)
≈ marks a conversion by molar mass, not a printed value. Bridge positions count the residues as written; N and C are the ends. Square brackets hold non-standard residues; d marks the D form. Peptide text beside a SMILES is read from it. * marks the point of attachment. ξ: configuration not given here. X9 = Cc1ccc(CO[C@@H](CCN)C(=O)*)cc1; dCha = N[C@H](CC1CCCCC1)C(=O)O; Thr(3ξ) = CC(O)[C@H](N)C(=O)O; X1 = CC(C)CN1CCNC[C@H]1C(=O)*; X28 = NCCC(C(=O)*)c1ccccc1Cl; X20 = NCC(Cc1ccccc1F)C(=O)*; X4 = CC(C)CC1CNCC(C(=O)*)C1; X15 = NCCC(CC1CCCC1)C(=O)*; X22 = NC(CCC(=O)*)C1CCCCC1; X24 = NCCC(Cc1ccsc1)C(=O)*; Dab = NCC[C@H](N)C(=O)O; Dap = NC[C@H](N)C(=O)O

Assays:
Assay type in all cases: cell-based
[1] = test system: Escherichia coli
Outline: (§1)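 Values are minimum inhibitory concentrations in μg/mL, measured across a panel of up to nine strains of each Gram-negative pathogen, some Polymyxin-elevated or resistant.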

[2] = test system: Acinetobacter baumannii
Outline: as §1

[3] = test system: Pseudomonas aeruginosa
Outline: as §1

[4] = test system: Klebsiella pneumoniae
Outline: as §1

Compound | MIC E. coli 058 [1] [µg/mL] | MIC E. coli 061 [1] [µg/mL] | MIC E. coli ATCC 25922 [1] [µg/mL] | MIC A. baumanii 053 [2] [µg/mL] | MIC A. baumanii 056 [2] [µg/mL] | MIC A. baumanii ATCC BAA-747 [2] [µg/mL] | MIC A. baumanii NCTC 13424 [2] [µg/mL] | MIC P. aeruginosa 068 [3] [µg/mL] | MIC P. aeruginosa 070 [3] [µg/mL] | MIC P. aeruginosa ATCC 27853 [3] [µg/mL] | MIC P. aeruginosa CCUG 59347 [3] [µg/mL] | MIC K. pneumoniae 063 [4] [µg/mL] | MIC K. pneumoniae 065 [4] [µg/mL] | MIC K. pneumoniae ATCC 13882 [4] [µg/mL] | MIC E. coli NCTC 9001 [1] [µg/mL] | MIC K. pneumoniae ATCC 4352 [4] [µg/mL]
CC(C)C[C@@H]1NC(=O)[C@@H](CC2CCCCC2)NC(=O)[C@H](CCN)NC(=O)[C@@H](NC(=O)[C@H](CCN)NC(=O)[C@@H](NC(=O)[C@@H]2CNCCN2CC(C)C)C(C)O)CCNC(=O)[C@H]([C@@H](C)O)NC(=O)[C@H](CCN)NC(=O)[C@H](CCN)NC1=O (stereo partly drawn) [Example 52, (S)-1-isobutylpiperazine-2-carbonyl polymyxin [D-cyclohexylalanine]-6 nonapeptide] (X1-[Thr(3ξ)][Dab][Dab][Dab][dCha]L[Dab][Dab]T; lactam 3-C) | 8 (≈ 7.03 µM) | 16 (≈ 14.1 µM) | 0.25 (≈ 0.22 µM) | >64 | >64 | 0.25 (≈ 0.22 µM) | 0.25 (≈ 0.22 µM) | 16 (≈ 14.1 µM) | 16 (≈ 14.1 µM) | 0.5 (≈ 0.44 µM) | 1 (≈ 0.879 µM) | 64 (≈ 56.3 µM) | 8 (≈ 7.03 µM) | 0.25 (≈ 0.22 µM) |  | 
CC(C)C[C@@H]1NC(=O)[C@@H](CC2CCCCC2)NC(=O)[C@H](CCN)NC(=O)[C@@H](NC(=O)[C@H](CCN)NC(=O)[C@@H](NC(=O)C(CN)Cc2ccccc2F)[C@@H](C)O)CCNC(=O)[C@H]([C@@H](C)O)NC(=O)[C@H](CCN)NC(=O)[C@H](CCN)NC1=O (stereo partly drawn) [Example 62, 3-amino-2-(2-fluorobenzyl) propanoyl] (X20-T[Dab][Dab][Dab][dCha]L[Dab][Dab]T; lactam 3-C) | 4 (≈ 3.48 µM) | 32 (≈ 27.9 µM) | 0.125 (≈ 0.109 µM) | >64 | >64 | 0.5 (≈ 0.435 µM) | 0.5 (≈ 0.435 µM) | 8 (≈ 6.97 µM) | 16 (≈ 13.9 µM) | 0.5 (≈ 0.435 µM) | 0.5 (≈ 0.435 µM) | 64 (≈ 55.7 µM) | 8 (≈ 6.97 µM) | 0.125 (≈ 0.109 µM) |  | 
CC(C)C[C@@H]1NC(=O)[C@@H](CC2CCCCC2)NC(=O)[C@H](CCN)NC(=O)[C@@H](NC(=O)[C@H](CN)NC(=O)[C@@H](NC(=O)CCC(N)C2CCCCC2)[C@@H](C)O)CCNC(=O)[C@H]([C@@H](C)O)NC(=O)[C@H](CCN)NC(=O)[C@H](CCN)NC1=O (stereo partly drawn) [Example 63, 4-amino-4-cyclohexylbutanoyl L-Thr-L-Dap-polymyxin [D-cyclohexylalanine]-6 heptapeptide.] (X22-T[Dap][Dab][Dab][dCha]L[Dab][Dab]T; lactam 3-C) | 4 (≈ 3.56 µM) | 16 (≈ 14.3 µM) | 0.25 (≈ 0.223 µM) | 64 (≈ 57 µM) | 32 (≈ 28.5 µM) | 0.125 (≈ 0.111 µM) | 0.125 (≈ 0.111 µM) | 8 (≈ 7.13 µM) | 8 (≈ 7.13 µM) | 0.25 (≈ 0.223 µM) | 0.5 (≈ 0.445 µM) | >64 | 4 (≈ 3.56 µM) | 0.125 (≈ 0.111 µM) |  | 
CC(C)C[C@@H]1NC(=O)[C@@H](CC2CCCCC2)NC(=O)[C@H](CCN)NC(=O)[C@@H](NC(=O)[C@H](CN)NC(=O)[C@@H](NC(=O)C(CCN)Cc2ccsc2)[C@@H](C)O)CCNC(=O)[C@H]([C@@H](C)O)NC(=O)[C@H](CCN)NC(=O)[C@H](CCN)NC1=O (stereo partly drawn) [Example 68, 4-amino-2-(thiophen-3-ylmethyl)butanoyl L-Thr-L-Dap-polymyxin [D-cyclohexylalanine]-6 heptapeptide.] (X24-T[Dap][Dab][Dab][dCha]L[Dab][Dab]T; lactam 3-C) | 2 (≈ 1.76 µM) | 16 (≈ 14.1 µM) | 0.125 (≈ 0.11 µM) | >64 | 64 (≈ 56.3 µM) | 0.25 (≈ 0.22 µM) | 0.25 (≈ 0.22 µM) | 1 (≈ 0.88 µM) | 1 (≈ 0.88 µM) | 0.25 (≈ 0.22 µM) | 0.5 (≈ 0.44 µM) | 16 (≈ 14.1 µM) | 1 (≈ 0.88 µM) | 0.25 (≈ 0.22 µM) |  | 
Cc1ccc(CO[C@@H](CCN)C(=O)N[C@H](C(=O)N[C@@H](CN)C(=O)N[C@H]2CCNC(=O)[C@H]([C@@H](C)O)NC(=O)[C@H](CCN)NC(=O)[C@H](CCN)NC(=O)[C@H](CC(C)C)NC(=O)[C@@H](CC3CCCCC3)NC(=O)[C@H](CCN)NC2=O)[C@@H](C)O)cc1 [Example 71, (S)-4-amino-2-((4-methylbenzyl)oxy) butanoyl L-Thr-L-Dap-polymyxin [D-cyclohexylalanine]-6 heptapeptide.] (X9-T[Dap][Dab][Dab][dCha]L[Dab][Dab]T; lactam 3-C) | 4 (≈ 3.45 µM) | 16 (≈ 13.8 µM) | 0.125 (≈ 0.108 µM) | 64 (≈ 55.2 µM) | 32 (≈ 27.6 µM) | 0.125 (≈ 0.108 µM) | 0.125 (≈ 0.108 µM) | 8 (≈ 6.89 µM) | 16 (≈ 13.8 µM) | 0.25 (≈ 0.215 µM) | 0.25 (≈ 0.215 µM) | 64 (≈ 55.2 µM) | 4 (≈ 3.45 µM) | 0.25 (≈ 0.215 µM) | 0.125 (≈ 0.108 µM) | 0.25 (≈ 0.215 µM)
CC(C)CC1CNCC(C(=O)N[C@H](C(=O)N[C@@H](CCN)C(=O)N[C@H]2CCNC(=O)[C@H]([C@@H](C)O)NC(=O)[C@H](CCN)NC(=O)[C@H](CCN)NC(=O)[C@H](CC(C)C)NC(=O)[C@@H](CC3CCCCC3)NC(=O)[C@H](CCN)NC2=O)[C@@H](C)O)C1 (stereo partly drawn) [Example 73] (X4-T[Dab][Dab][Dab][dCha]L[Dab][Dab]T; lactam 3-C) | 1 (≈ 0.88 µM) | 2 (≈ 1.76 µM) | 0.125 (≈ 0.11 µM) | 64 (≈ 56.3 µM) | 16 (≈ 14.1 µM) | 0.25 (≈ 0.22 µM) | 0.125 (≈ 0.11 µM) | 1 (≈ 0.88 µM) | 1 (≈ 0.88 µM) | 0.5 (≈ 0.44 µM) | 0.5 (≈ 0.44 µM) | 8 (≈ 7.04 µM) | 2 (≈ 1.76 µM) | 0.25 (≈ 0.22 µM) | 0.125 (≈ 0.11 µM) | 
CC(C)C[C@@H]1NC(=O)[C@@H](CC2CCCCC2)NC(=O)[C@H](CCN)NC(=O)[C@@H](NC(=O)[C@H](CN)NC(=O)[C@@H](NC(=O)C(CCN)CC2CCCC2)[C@@H](C)O)CCNC(=O)[C@H]([C@@H](C)O)NC(=O)[C@H](CCN)NC(=O)[C@H](CCN)NC1=O (stereo partly drawn) [Example 75, 4-amino-2-(cyclopentylmethyl) butanoyl L-Thr-L-Dap-polymyxin [D-cyclohexylalanine]-6 heptapeptide.] (X15-T[Dap][Dab][Dab][dCha]L[Dab][Dab]T; lactam 3-C) | 2 (≈ 1.78 µM) | 16 (≈ 14.3 µM) | 0.125 (≈ 0.111 µM) | >64 | 64 (≈ 57 µM) | 0.125 (≈ 0.111 µM) | 0.125 (≈ 0.111 µM) | 2 (≈ 1.78 µM) | 2 (≈ 1.78 µM) | 0.25 (≈ 0.223 µM) | 0.25 (≈ 0.223 µM) | 16 (≈ 14.3 µM) | 1 (≈ 0.891 µM) | 0.125 (≈ 0.111 µM) |  | 
CC(C)C[C@@H]1NC(=O)[C@@H](CC2CCCCC2)NC(=O)[C@H](CCN)NC(=O)[C@@H](NC(=O)[C@H](CN)NC(=O)[C@@H](NC(=O)C(CCN)c2ccccc2Cl)[C@@H](C)O)CCNC(=O)[C@H]([C@@H](C)O)NC(=O)[C@H](CCN)NC(=O)[C@H](CCN)NC1=O (stereo partly drawn) [Example 76, 4-amino-2-(2-chlorophenyl) butanoyl L-Thr-L-Dap-polymyxin [D-cyclohexylalanine]-6 heptapeptide.] (X28-T[Dap][Dab][Dab][dCha]L[Dab][Dab]T; lactam 3-C) | 8 (≈ 6.95 µM) |  | 0.125 (≈ 0.109 µM) |  |  | 0.5 (≈ 0.434 µM) | 0.5 (≈ 0.434 µM) |  |  | 0.5 (≈ 0.434 µM) | 0.5 (≈ 0.434 µM) |  |  | 0.25 (≈ 0.217 µM) |  | 
